tested on: β-galactosidase substrate with HIV protease cleavage site; assay: cleavage of a β-galactosidase substrate by processed PR expressed from pMono in E. coli, Western blot; format: cell-based; conditions: single alanine substitutions in processed monomeric PR; full-length β-galactosidase cleavage, average of two or more inductions
Excerpt: Plasmid pMono expresses wild-type or mutated monomeric protease from the tac promoter (Amann et al. (1983) Gene 25:167-178) in Escherichia coli and was derived from plasmid P1+IQ (Baum et al. (1990) Proc. Natl. Acad. Sci. USA 87:10023-10027). Protease sequences in P1+1Q were replaced by a linker of 5′ XhoI-XbaI-SalI-PstI 3′ to produce p1CVx. Wild-type or mutated protease sequences were obtained from pET-PR by PCR with primers 5′Xho (AATATA-CTCGAG-[…], SEQ ID NO: 1) and 3′Xba (ATAAAT-TCTAGA-[…], SEQ ID NO: 2) and were inserted into p1CVx to produce pMono. The phagemid pET-PR contains the 99-residue coding domain of the monomeric protease (HXB2 isolate [Ratner et al. (1987) AIDS Res. Hum. Retrovir. 3:57-69]) inserted into the NdeI-BamHI sites of pET24a (Novagen). The Kunkel method using single-stranded templates of pET-PR substituted with uracil was employed for site-directed mutagenesis (Bebenek and Kunkel (1989) Nucleic Acids Res. 17:5408, Kunkel et al. (1991) Methods Enzymol204:125-139). Mutations were confirmed by DNA sequencing prior to transfer of the protease sequences into p1CVx.
Uninduced mid-log-phase (optical density at 600 nm=0.5) cultures of lac-E. coli strain MC1061 carrying pMono were grown in yeast-tryptone medium to produce samples for Western blot analysis. Cells were pelleted, resuspended in 400 μl of sodium dodecyl sulfate (SDS)-polyacrylamide gel electrophoresis (PAGE) sample buffer (Pettit et al. (1991) J. Biol. Chem. 266:14539-14547) (optical density at 600 nm=˜0.5), and heated to 95° C. for 4 min. SDS-PAGE was performed on Tris-glycine gels (7.5% polyacrylamide) (Laemmli (1970) Nature […]). Separated proteins were bound to nitrocellulose by electrotransfer, blocked for 1 h with 3% bovine serum albumin in Tris-buffered saline-0.1% Tween 20, and probed with anti-β-galactosidase monoclonal antibody (Boehringer) at a 1:5,000 dilution. Following multiple washes in Tris-buffered saline-0.1% Tween 20, β-galactosidase was detected with the ECL Plus system followed by autoradiography according to the instructions of the manufacturer (Amersham Pharmacia). The extent of β-galactosidase cleavage was determined by densitometric measurement on a Molecular Dynamics Storm model 800 Phosphorlmager. For scanning, the Phosphorlmager was set in the blue fluorescence and chemifluorescence mode with a photomultiplier tube voltage of 700 V. The final value for percent cleavage of the β-galactosidase substrate was determined by taking the average of two or more independent inductions.
For these studies, we modified an E. coli expression system developed as described in Baum et al. (1990) Proc. Natl. Acad. Sci. USA 87:10023-10027. The vector (pMono) expresses HIV protease and the β-galactosidase gene. A cleavage cassette consisting of a decapeptide corresponding to an HIV protease cleavage site was inserted into the β-galactosidase open reading frame. In this system, enzyme activity may be assessed via Western blotting as the percent cleavage of full-length β-galactosidase.

Compared with “Q2A: processed HIV-1 protease with single alanine substitution of dimer interface residue Gln 2”, “L97A: processed HIV-1 protease with single alanine substitution of dimer interface residue Leu 97” is lower in “% Cleavage” value: 96% for the first, 0% for the second.

Going from “F99A: processed HIV-1 protease with single alanine substitution of dimer interface residue Phe 99” to “Wild type: wild-type mature 99-residue monomeric HIV-1 protease (HXB2) expressed from pMono”, the “% Cleavage” value rises from 0% to 96%.

First: N98A: processed HIV-1 protease with single alanine substitution of dimer interface residue Asn 98
Second: T4A: processed HIV-1 protease with single alanine substitution of dimer interface residue Thr 4
The “% Cleavage” value of the first is lower: 68% for the first, 96% for the second.

Compared with “P1A: processed HIV-1 protease with single alanine substitution of dimer interface residue Pro 1”, “D25A: processed HIV-1 protease with replacement of the catalytic aspartate, negative control” is lower in “% Cleavage” value: 92% for the first, 0% for the second.

“T96A: processed HIV-1 protease with single alanine substitution of dimer interface residue Thr 96” was tested, and the “% Cleavage” value was 14%.

Reference: patent publication US20050233313A1, “Methods and reagents for identifying inhibitors of viral protease activity” (priority 2002, published 2005)
